Laboratory results: patent US9725414B2, “Fungicidal N-bicycloalkyl and N-tricycloalkyl pyrazole-4-(thio)carboxamide derivatives” (priority 2011, dated 2017)
Values belong to the molecule of their own block, whether it stands above or below them.

Columns and labels:
Sphaerotheca fuliginea [1] = assay: Example A: in vivo preventive test on Sphaerotheca fuliginea (cucumber); conditions: 500 ppm of active ingredient, evaluated 7 days after inoculation
Procedure: In Vivo Preventive Test on Sphaerotheca fuliginea (Cucumber) Solvent: 49 parts by weight of N,N-dimethylformamide Emulsifier: 1 part by weight of alkylarylpolyglycolether To produce a suitable preparation of active compound, 1 part by weight of active compound is mixed with the stated amounts of solvent and emulsifier, and the concentrate is diluted with water to the desired concentration. To test for preventive activity, young plants are sprayed with the preparation of active compound at the stated rate of application. One day after this treatment, the plants are inoculated with an aqueous spore suspension of Sphaerotheca fuliginea. Then the plants are placed in a greenhouse at approximately 23° C. and a relative atmospheric humidity of approximately 70%.

Alternaria solani = assay: Example C: in vivo preventive test on Alternaria solani (tomato); conditions: 500 ppm of active ingredient, evaluated 7 days after inoculation
Method in brief: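 Young tomato plants sprayed preventively with compound formulated in DMF/emulsifier and diluted with water, then inoculated one day later with Alternaria solani spores. Plants were held one day at about 22° C, 100% humidity, then at about 20° C, 96% humidity.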

Pyrenophora teres [2] = assay: Example E: in vivo preventive test on Pyrenophora teres (barley), DMF/emulsifier preparation; conditions: 500 ppm of active ingredient, evaluated 7-9 days after inoculation
Method in brief: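 Young barley plants sprayed preventively with compound formulated in DMF/alkylaryl polyglycol ether emulsifier and diluted in water. One day later inoculated with aqueous Pyrenophora teres spore suspension, then held 48 h at 22 °C and 100% relative humidity.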

[3] = log P by HPLC on reversed-phase column (C 18), EEC Directive 79831 Annex V.A8; type: physicochemical; conditions: HPLC reversed-phase C 18, 40° C., 0.1% aqueous formic acid and acetonitrile gradient; several values = mixture of two or more isomers
Method in brief: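 Reversed-phase C18 HPLC at 40° C, 0.1% aqueous formic acid/acetonitrile linear gradient 10% to 90% acetonitrile, per EEC Directive 79831 Annex V.A8. log P obtained from retention time by linear interpolation between unbranched alkan-2-ones (C3-C16) of known log P.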

Sphaerotheca fuliginea [4] = assay: Example B: in vivo preventive test on Sphaerotheca fuliginea (powdery mildew on cucurbits), gherkin plants; conditions: 500 ppm of active ingredient, grading 12 days after contamination
Method in brief: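 Gherkin plants grown at 24 °C were sprayed with compound at the Z11 cotyledon stage; controls received acetone/tween/DMSO/water without active. 24 h later, cotyledons were inoculated by spraying with Sphaerotheca fuliginea spores (100 000 spores per mL).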

Pyrenophora teres [5] = assay: Example F: in vivo preventive test on Pyrenophora teres (barley), acetone/tween/DMSO preparation; conditions: 500 ppm of active ingredient, barley, grading 14 days after contamination
Method in brief: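 Barley ("Plaisant") grown at 22° C was sprayed at the 1-leaf stage (10 cm) with active ingredient in acetone/tween/DMSO/water, with solvent-only controls. After 24 h, leaves were inoculated with Pyrenophora teres spores (12 000 spores per mL) from 12-day cultures. % efficacy versus controls graded 14 days post-contamination.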

Septoria tritici [6] = assay: Example I: in vivo preventive test on Septoria tritici (wheat), acetone/tween/DMSO preparation; conditions: 500 ppm of active ingredient, grading 24 days after contamination
Method in brief: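 Scipion wheat grown at 22° C, sprayed at 1-leaf stage (10 cm); controls received acetone/tween/DMSO/water without active. Inoculated 24 h later with S. tritici spores (500 000/mL), held 72 h at 18° C, 100% RH, then 21 days at 90% RH. % efficacy vs controls scored 24 days post-inoculation.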

Puccinia recondita = assay: Example M: in vivo preventive test on Puccinia recondita (brown rust on wheat); conditions: 500 ppm of active ingredient, grading 12 days after contamination
Method in brief: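 Wheat (Scipion) sprayed with compound at 1-leaf stage, grown at 22° C. Inoculated 24 h later with a spore suspension at 100 000 spores per mL. Efficacy (%) graded 12 days after inoculation against solvent-treated controls.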

Uromyces appendiculatus = assay: Example Q: in vivo preventive test on Uromyces appendiculatus (bean rust); conditions: Uromyces appendiculatus on bean plants, 500 ppm of active ingredient, grading 11 days after contamination
Procedure: In Vivo Preventive Test on Uromyces appendiculatus (Bean Rust) […] Bean plants (“Saxa” variety), sown in starter cups on a 50/50 peat soil pozzolana substrate and grown at 24° C., are treated at the 2 leaf stage (9 cm height) by spraying with the active ingredient prepared as described above. Plants, used as controls, are treated with the mixture of acetone/tween/DMSO/water not containing the active material. After 24 hours, the plants are contaminated by spraying the leaves with an aqueous suspension of Uromyces appendiculatus spores (150 000 spores per mL). The spores are collected from infected plants and are suspended in water containing 2.5 mL/L of Tween 80 at 10%. […] Grading (% of efficacy) is carried out 11 days after the contamination, in comparison with the control plants.

Alternaria brassicae = assay: Example D: in vivo preventive test on Alternaria brassicae (leaf spot on radish); conditions: 500 ppm of active ingredient, grading 6 days after contamination
Procedure: In Vivo Preventive Test on Alternaria brassicae (Leaf Spot on Radish) […] Radish plants (“Pernod Clair” variety), sown in starter cups on a 50/50 peat soil pozzolana substrate and grown at 17° C., are treated at the cotyledon stage by spraying with the active ingredient prepared as described above. Plants, used as controls, are treated with the mixture of acetone/tween/DMSO/water not containing the active material. After 24 hours, the plants are contaminated by spraying the cotyledons with an aqueous suspension of Alternaria brassicae spores (50 000 spores per mL). The spores are collected from a 15-day-old culture. The contaminated radish plants are incubated at 20° C. and at 100% relative humidity. Grading (% of efficacy) is carried out 6 days after the contamination, in comparison with the control plants.

Botrytis cinerea [7] = assay: Example P: in vivo preventive test on Botrytis cinerea (grey mould), gherkin plants; conditions: 500 ppm of active ingredient, grading 4 to 5 days after contamination
Procedure: In Vivo Preventive Test on Botrytis cinerea (Grey Mould) […] Gherkin plants (“Vert petit de Paris” variety), sown in starter cups on a 50/50 peat soil pozzolana substrate and grown at 24° C. are treated at the Z11 cotyledon stage by spraying with the active ingredient prepared as described above. Plants, used as controls, are treated with the mixture of acetone/tween/DMSO/water not containing the active material. After 24 hours, the plants are contaminated by spraying the cotyledons with an aqueous suspension of cryopreserved Botrytis cinerea spores (50 000 spores per mL). The spores are suspended in a nutrient solution composed of 10 g/L of PDB, 50 g/L of D-Fructose, 2 g/L of NH4NO3 and 1 g/L of KH2PO4. The contaminated gherkin plants are incubated at 17° C. and at 90% relative humidity. Grading (% of efficacy) is carried out 4 to 5 days after the contamination, in comparison with the control plants.

Venturia inaequalis = assay: Example G: in vivo preventive test on Venturia inaequalis (apple scab); conditions: 100 ppm of active ingredient, evaluated 10 days after inoculation
Procedure: In Vivo Preventive Test on Venturia inaequalis (Apple Scab) Solvent: 24.5 parts by weight of acetone • 24.5 parts by weight of N,N-dimethylacetamide Emulsifier: 1 part by weight of alkylaryl polyglycol ether To produce a suitable preparation of active compound, 1 part by weight of active compound is mixed with the stated amounts of solvent and emulsifier, and the concentrate is diluted with water to the desired concentration. To test for preventive activity, young plants are sprayed with the preparation of active compound at the stated rate of application. After the spray coating has dried on, the plants are inoculated with an aqueous conidia suspension of the causal agent of apple scab (Venturia inaequalis) and then remain for 1 day in an incubation cabinet at approximately 20° C. and a relative atmospheric humidity of 100%. The plants are then placed in a greenhouse at approximately 21° C. and a relative atmospheric humidity of approximately 90%.

Botrytis cinerea [8] = assay: Example O: in vivo protective test on Botrytis cinerea (beans); conditions: 100 ppm of active ingredient, lesion size 2 days after inoculation
Procedure: In Vivo Protective Test on Botrytis cinerea (Beans)
Solvent: 24.5 parts by weight of acetone • 24.5 parts by weight of N,N-dimethylacetamide
Emulsifier: 1 part by weight of alkylaryl polyglycol ether
To produce a suitable preparation of active compound, 1 part by weight of active compound is mixed with the stated amounts of solvent and emulsifier, and the concentrate is diluted with water to the desired concentration.
To test for preventive activity, young plants are sprayed with the preparation of active compound. After the spray coating has dried on, 2 small pieces of agar covered with growth of Botrytis cinerea are placed on each leaf. The inoculated plants are placed in a darkened chamber at 20° C. and a relative atmospheric humidity of 100%.
2 days after the inoculation, the size of the lesions on the leaves is evaluated. 0% means an efficacy which corresponds to that of the untreated control, while an efficacy of 100% means that no disease is observed.

Septoria tritici [9] = assay: Example H: in vivo preventive test on Septoria tritici (wheat), N,N-dimethylacetamide/emulsifier preparation; conditions: 500 ppm of active ingredient, evaluated 21 days after inoculation
Procedure: (§1) In Vivo Preventive Test on Septoria tritici (Wheat) Solvent: 49 parts by weight of N,N-dimethylacetamide Emulsifier: 1 part by weight of alkylaryl polyglycol ether To produce a suitable preparation of active compound, 1 part by weight of active compound or active compound combination is mixed with the stated amounts of solvent and emulsifier, and the concentrate is diluted with water to the desired concentration. To test for preventive activity, young plants are sprayed with the preparation of active compound or active compound combination at the stated rate of application. After the spray coating has been dried, the plants are sprayed with a spore suspension of Septoria tritici. The plants remain for 48 hours in an incubation cabinet at approximately 20° C. and a relative atmospheric humidity of approximately 100% and afterwards for 60 hours at approximately 15° C. in a translucent incubation cabinet at a relative atmospheric humidity of approximately 100%.

[10] = test system: Blumeria graminis f.sp. hordei; assay: Example J: in vivo preventive test on Blumeria graminis (barley); conditions: 500 ppm of active ingredient, evaluated 7 days after inoculation
Procedure: In Vivo Preventive Test on Blumeria graminis (Barley) Solvent: 49 parts by weight of N,N-dimethylacetamide Emulsifier: 1 part by weight of alkylaryl polyglycol ether To produce a suitable preparation of active compound, 1 part by weight of active compound or active compound combination is mixed with the stated amounts of solvent and emulsifier, and the concentrate is diluted with water to the desired concentration. To test for preventive activity, young plants are sprayed with the preparation of active compound or active compound combination at the stated rate of application. After the spray coating has been dried, the plants are dusted with spores of Blumeria graminis f.sp. hordei.

Leptosphaeria nodorum = assay: Example K: in vivo preventive test on Leptosphaeria nodorum (wheat); conditions: 500 ppm of active ingredient, evaluated 8 days after inoculation
Procedure: as §1, with “Leptosphaeria nodorum” for “Septoria tritici”, “Leptosphaeria nodorum.” for “Septoria tritici.”, “approximately” for “approximately 100% and afterwards for 60 hours at approximately 15° C. in a translucent incubation cabinet at a relative atmospheric humidity of approximately”

logP [3]: 3.60
SMILES: Cn1nc(C(F)F)c(C(=O)NC2CCCC3CCCCC32)c1F (centres unmarked) [Example 25]
Efficacy (Sphaerotheca fuliginea [1]): 88% | Efficacy (Sphaerotheca fuliginea [4]): 100% | Efficacy (Alternaria solani): 100% | Efficacy (Pyrenophora teres [2]): 95% | Efficacy (Pyrenophora teres [5]): 86% | Efficacy (Septoria tritici [6]): 96% | Efficacy (Puccinia recondita): 100% | Efficacy (Uromyces appendiculatus): 80%

logP [3]: 4.90
SMILES: Cn1nc(C(F)F)c(C(=O)N(CC2CCCC3CCCCC32)C2CC2)c1F (centres unmarked) [Example 65]
Efficacy (Sphaerotheca fuliginea [4]): 100% | Efficacy (Alternaria brassicae): 100% | Efficacy (Pyrenophora teres [5]): 100% | Efficacy (Septoria tritici [6]): 100% | Efficacy (Puccinia recondita): 100% | Efficacy (Botrytis cinerea [7]): 100% | Efficacy (Uromyces appendiculatus): 100%

logP [3]: 4.37
SMILES: Cn1cc(C(=O)N(CC2CCCC3CCCCC32)C2CC2)c(C(F)F)n1 (centres unmarked) [Example 66]
Efficacy (Sphaerotheca fuliginea [4]): 100% | Efficacy (Alternaria brassicae): 96% | Efficacy (Pyrenophora teres [5]): 100% | Efficacy (Septoria tritici [6]): 100% | Efficacy (Puccinia recondita): 94% | Efficacy (Botrytis cinerea [7]): 99% | Efficacy (Uromyces appendiculatus): 88%

logP [3]: 4.21
SMILES: CC1C(CN(C(=O)c2cn(C)nc2C(F)F)C2CC2)CC2CC1C2(C)C (centres unmarked) [Example 78]
Efficacy (Sphaerotheca fuliginea [1]): 95% | Efficacy (Alternaria solani): 100% | Efficacy (Pyrenophora teres [2]): 100%

logP [3]: 4.82
SMILES: CC1C(CNC(=S)c2c(C(F)F)nn(C)c2F)CC2CC1C2(C)C (centres unmarked) [Example 82]
Efficacy (Sphaerotheca fuliginea [1]): 93% | Efficacy (Alternaria solani): 90% | Efficacy (Pyrenophora teres [2]): 95%

logP [3]: 4.47
SMILES: CC(C1CC2CCC1C2)N(C(=S)c1c(C(F)F)nn(C)c1F)C1CC1 (centres unmarked) [Example 97]
Efficacy (Sphaerotheca fuliginea [1]): 100% | Efficacy (Alternaria solani): 95% | Efficacy (Pyrenophora teres [2]): 100% | Efficacy (Venturia inaequalis): 98% | Efficacy (Botrytis cinerea [8]): 100%

The next lines start with the molecule.

SMILES: CC1CC(C)(C)C2CCCC(NC(=S)c3c(C(F)F)nn(C)c3F)C12 (mixture of isomers) [Example 18]
Efficacy (Sphaerotheca fuliginea [1]): 83% | Efficacy (Alternaria solani): 80% | Efficacy (Pyrenophora teres [2]): 95%

SMILES: CCc1nn(C)c(F)c1C(=O)N(C1CC1)C(C)C1CC2CCC1C2 (mixture of isomers) [Example 95]
Efficacy (Sphaerotheca fuliginea [1]): 95% | Efficacy (Alternaria solani): 100% | Efficacy (Pyrenophora teres [2]): 100%

SMILES: CC1C(CN(C(=O)c2c(C(F)F)nn(C)c2F)C2CC2)CC2CC1C2(C)C (centres unmarked) [Example 77]
logP [3]: 4.69 | Efficacy (Sphaerotheca fuliginea [1]): 100% | Efficacy (Alternaria solani): 95% | Efficacy (Pyrenophora teres [2]): 100%

SMILES: Cn1nc(C(F)F)c(C(=O)NCC2CCC3CC2C3(C)C)c1Cl (centres unmarked) [Example 83]
logP [3]: 3.85 | Efficacy (Sphaerotheca fuliginea [1]): 90% | Efficacy (Alternaria solani): 95% | Efficacy (Pyrenophora teres [2]): 100%

SMILES: Cc1nn(C)c(F)c1C(=O)N(C1CC1)C(C)C1CC2CCC1C2 (centres unmarked) [Example 96]
logP [3]: 3.46 | Efficacy (Sphaerotheca fuliginea [1]): 95% | Efficacy (Alternaria solani): 100% | Efficacy (Pyrenophora teres [2]): 100%

SMILES: Cc1nn(C)c(F)c1C(=S)N(C1CC1)C(C)C1CC2CCC1C2 (centres unmarked) [Example 98]
logP [3]: 4.34 | Efficacy (Sphaerotheca fuliginea [1]): 93% | Efficacy (Alternaria solani): 95% | Efficacy (Pyrenophora teres [2]): 100%

SMILES: CCc1nn(C)c(F)c1C(=O)N(C1CC1)C(C)C12CC3CC(CC(C3)C1)C2 (centres unmarked) [Example 104]
logP [3]: 4.86 | Efficacy (Sphaerotheca fuliginea [1]): 96% | Efficacy (Alternaria solani): 95% | Efficacy (Pyrenophora teres [2]): 95% | Efficacy (Septoria tritici [9]): 90% | Efficacy [10]: 78% | Efficacy (Leptosphaeria nodorum): 83%
